Source: ChEMBL document CHEMBL1201862, “PubChem BioAssay data set” (2004)
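Five concentrations, 48 hours, 96-well plates. At the GI50, growth is halved.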 The source made the active and inactive calls. No stated cut-off is given here; in the data, active = GI50 up to about 1.1 µM and inactive = higher.

What was measured:
Assay in all cases: growth of human tumour cells (NCI), 48 h
SF-295 = system: SF-295
HOP-92 = system: HOP-92
MOLT-4 = system: MOLT-4
U-251 = system: U-251
UO-31 = system: UO-31
SW-620 = system: SW-620
A549 = system: A549
SK-MEL-2 = system: SK-MEL-2
UACC-257 = system: UACC-257
NCI-H460 = system: NCI-H460
NCI-H23 = system: NCI-H23
ACHN = system: ACHN
OVCAR-3 = system: OVCAR-3
KM12 = system: KM12
786-0 = system: 786-0
SK-OV-3 = system: SK-OV-3
EKVX = system: EKVX
A498 = system: A498

Measured: GI50

OC(c1ccccc1)(c1ccccc1)c1ccncc1
inactive: SF-295 > 100 µM | HOP-92 74 µM | MOLT-4 > 100 µM | U-251 > 100 µM | UO-31 > 100 µM | SW-620 > 100 µM | A549 > 100 µM | SK-MEL-2 > 100 µM | UACC-257 > 100 µM | NCI-H460 > 100 µM | NCI-H23 > 100 µM | ACHN > 100 µM | OVCAR-3 > 100 µM | KM12 > 100 µM | 786-0 66.1 µM | SK-OV-3 > 100 µM | EKVX > 100 µM

COC(=O)c1csnn1
inactive: SF-295 > 100 µM | MOLT-4 > 100 µM | U-251 > 100 µM | UO-31 > 100 µM | SW-620 > 100 µM | A549 > 100 µM | UACC-257 > 100 µM | NCI-H460 > 100 µM | NCI-H23 > 100 µM | ACHN > 100 µM | OVCAR-3 > 100 µM | KM12 > 100 µM | 786-0 > 100 µM | SK-OV-3 > 100 µM | EKVX > 100 µM

N#Cc1nc(Nc2cccc3ccccc23)sc1N
inactive: SF-295 28.3 µM | HOP-92 21.1 µM | MOLT-4 11.5 µM | U-251 22.2 µM | UO-31 12.9 µM | SW-620 41.2 µM | A549 26.5 µM | SK-MEL-2 28.5 µM | UACC-257 15.8 µM | NCI-H460 35 µM | NCI-H23 14 µM | ACHN 25.1 µM | OVCAR-3 44.6 µM | KM12 30.2 µM | 786-0 33 µM | SK-OV-3 38 µM

COc1ccc(CC2c3c(cc(OC)c(OC)c3OC)CCN2C)cc1OC (stereo not drawn)
inactive: SF-295 63.7 µM | MOLT-4 > 100 µM | U-251 > 100 µM | UO-31 > 100 µM | SW-620 > 100 µM | A549 > 100 µM | SK-MEL-2 > 100 µM | UACC-257 > 100 µM | NCI-H460 > 100 µM | NCI-H23 > 100 µM | ACHN > 100 µM | A498 > 100 µM | OVCAR-3 > 100 µM | KM12 > 100 µM | 786-0 > 100 µM | EKVX > 100 µM

CC(=O)NC(CCCNC(=O)NCCCl)C(=O)NCc1ccccc1 (stereo not drawn)
inactive: SF-295 > 100 µM | HOP-92 > 100 µM | MOLT-4 > 100 µM | U-251 > 100 µM | UO-31 > 100 µM | SW-620 > 100 µM | A549 > 100 µM | SK-MEL-2 > 100 µM | UACC-257 > 100 µM | NCI-H460 > 100 µM | NCI-H23 > 100 µM | ACHN > 100 µM | OVCAR-3 > 100 µM | KM12 > 100 µM | 786-0 > 100 µM | EKVX > 100 µM

CN1C/C(=C\C=C\c2ccccc2)C(=O)/C(=C/C=C/c2ccccc2)C1
inactive: SF-295 > 100 µM | MOLT-4 40.3 µM | U-251 > 100 µM | UO-31 > 100 µM | SW-620 > 100 µM | A549 > 100 µM | SK-MEL-2 > 100 µM | UACC-257 > 100 µM | NCI-H460 > 100 µM | NCI-H23 > 100 µM | ACHN > 100 µM | A498 > 100 µM | OVCAR-3 > 100 µM | KM12 > 100 µM | 786-0 87.3 µM | SK-OV-3 > 100 µM | EKVX > 100 µM

CCc1cccc(C)c1NS(=O)(=O)c1ccccc1
inactive: SF-295 > 100 µM | MOLT-4 > 100 µM | U-251 > 100 µM | UO-31 > 100 µM | SW-620 > 100 µM | A549 > 100 µM | SK-MEL-2 > 100 µM | UACC-257 > 100 µM | NCI-H460 > 100 µM | NCI-H23 > 100 µM | ACHN > 100 µM | A498 > 100 µM | OVCAR-3 > 100 µM | KM12 > 100 µM | 786-0 > 100 µM | SK-OV-3 > 100 µM | EKVX > 100 µM

C/C(=N\NC(C)(C)C)c1sc(-c2nc(C)c(/C(C)=N/NC(C)(C)C)s2)nc1C
inactive: SF-295 > 100 µM | HOP-92 > 100 µM | MOLT-4 > 100 µM | U-251 > 100 µM | UO-31 > 100 µM | SW-620 > 100 µM | A549 > 100 µM | UACC-257 > 100 µM | NCI-H23 > 100 µM | ACHN > 100 µM | A498 > 100 µM | OVCAR-3 > 100 µM | 786-0 > 100 µM | SK-OV-3 > 100 µM | EKVX > 100 µM

CC1=C(C(=O)CC(=O)C(=O)Nc2cc(C)ccc2C)Sc2ccccc2N1
inactive: SF-295 32 µM | HOP-92 85.7 µM | MOLT-4 66.7 µM | U-251 > 100 µM | UO-31 > 100 µM | SW-620 > 100 µM | A549 > 100 µM | SK-MEL-2 > 100 µM | UACC-257 > 100 µM | NCI-H460 > 10 µM | NCI-H23 > 100 µM | ACHN > 100 µM | OVCAR-3 > 100 µM | KM12 > 100 µM | 786-0 > 100 µM | SK-OV-3 > 100 µM | EKVX > 100 µM

CCOP(=O)(OCC)/C(C#N)=C/c1ccc[nH]1
inactive: SF-295 > 100 µM | HOP-92 > 100 µM | MOLT-4 > 100 µM | U-251 > 100 µM | UO-31 > 100 µM | SW-620 > 100 µM | A549 > 100 µM | SK-MEL-2 > 100 µM | UACC-257 > 100 µM | NCI-H460 > 100 µM | NCI-H23 > 100 µM | ACHN > 100 µM | OVCAR-3 > 100 µM | KM12 > 100 µM | 786-0 > 100 µM | SK-OV-3 > 100 µM

CCOC(C[C@H](O)[C@H]1COC(=S)S1)OCC
inactive: SF-295 > 100 µM | U-251 > 100 µM | UO-31 > 100 µM | SW-620 > 100 µM | A549 > 100 µM | UACC-257 > 100 µM | NCI-H460 > 100 µM | NCI-H23 > 100 µM | ACHN > 100 µM | OVCAR-3 > 100 µM | KM12 > 100 µM | 786-0 > 100 µM | SK-OV-3 > 10 µM | EKVX > 100 µM

O=C(c1ccccc1)[C@H]1Nc2ccc(Cl)cc2C2c3ccccc3CC21 (stereo partly drawn)
inactive: SF-295 18.5 µM | MOLT-4 11.9 µM | U-251 47.6 µM | UO-31 > 100 µM | SW-620 50.5 µM | A549 34.6 µM | SK-MEL-2 67 µM | UACC-257 18.5 µM | NCI-H460 63.5 µM | NCI-H23 60.3 µM | ACHN 45.2 µM | OVCAR-3 21 µM | KM12 > 100 µM | 786-0 30.8 µM

N#Cc1ccc(/C=N\N2C(=O)c3ccccc3C2=O)cc1
inactive: SF-295 > 100 µM | HOP-92 > 100 µM | MOLT-4 > 100 µM | UO-31 > 100 µM | SW-620 > 100 µM | A549 > 100 µM | SK-MEL-2 > 100 µM | UACC-257 > 100 µM | NCI-H460 > 100 µM | NCI-H23 > 100 µM | ACHN > 100 µM | A498 > 100 µM | OVCAR-3 > 100 µM | KM12 > 100 µM | 786-0 > 100 µM | EKVX > 100 µM

COc1cc2ccnc3c(=C(SC)SC)c(=O)c(c1OC)c23
inactive: SF-295 58.1 µM | HOP-92 5.64 µM | MOLT-4 4.6 µM | U-251 42.7 µM | UO-31 14.6 µM | SW-620 15.7 µM | A549 42.3 µM | SK-MEL-2 16.2 µM | UACC-257 13.6 µM | NCI-H460 35.3 µM | NCI-H23 > 10 µM | ACHN 12.9 µM | OVCAR-3 14.9 µM | KM12 22.4 µM | 786-0 11 µM | SK-OV-3 > 100 µM | EKVX > 10 µM

COc1cc(=O)oc(/C=C/CO)c1C
inactive: SF-295 > 100 µM | HOP-92 > 100 µM | MOLT-4 > 100 µM | U-251 > 100 µM | UO-31 > 100 µM | SW-620 > 100 µM | A549 > 100 µM | UACC-257 > 100 µM | NCI-H23 > 100 µM | ACHN > 100 µM | A498 > 100 µM | OVCAR-3 > 100 µM | KM12 > 100 µM | 786-0 > 100 µM | SK-OV-3 > 100 µM | EKVX > 100 µM

CN1C/C(=C\c2ccco2)c2nc(N)nc(-c3ccco3)c2C1
inactive: SF-295 > 100 µM | MOLT-4 48.9 µM | U-251 > 100 µM | UO-31 > 100 µM | SW-620 > 100 µM | A549 > 100 µM | SK-MEL-2 > 100 µM | UACC-257 > 100 µM | NCI-H460 > 100 µM | NCI-H23 > 100 µM | ACHN > 100 µM | A498 > 100 µM | OVCAR-3 43.9 µM | KM12 31.5 µM | 786-0 > 100 µM | SK-OV-3 > 100 µM | EKVX > 100 µM

C1=CC=C2NCCCCCC/N=C3\C=CC=CC=C3NCCc3cccc(c3)CC/N=C/2C=C1
inactive: SF-295 16.9 µM | HOP-92 23.7 µM | MOLT-4 7.78 µM | U-251 18.7 µM | UO-31 16.7 µM | SW-620 4.67 µM | A549 35.2 µM | SK-MEL-2 26.9 µM | UACC-257 22.8 µM | NCI-H460 5.42 µM | NCI-H23 13.1 µM | ACHN 33 µM | OVCAR-3 27.7 µM | KM12 14.7 µM | 786-0 10 µM | SK-OV-3 25.5 µM | EKVX 37 µM
